How the values were obtained:
[1] = target: T1, Phosphatidylinositol 3,4,5-trisphosphate 5-phosphatase 1 (Homo sapiens) (UniProt Q92835); test: Inhibition of recombinant human truncated SHIP1 using PI(3,4,5)P3diC8 at 1 mM after 30 mins by malachite green phosphatase release assay
T1 sequence (whole entry): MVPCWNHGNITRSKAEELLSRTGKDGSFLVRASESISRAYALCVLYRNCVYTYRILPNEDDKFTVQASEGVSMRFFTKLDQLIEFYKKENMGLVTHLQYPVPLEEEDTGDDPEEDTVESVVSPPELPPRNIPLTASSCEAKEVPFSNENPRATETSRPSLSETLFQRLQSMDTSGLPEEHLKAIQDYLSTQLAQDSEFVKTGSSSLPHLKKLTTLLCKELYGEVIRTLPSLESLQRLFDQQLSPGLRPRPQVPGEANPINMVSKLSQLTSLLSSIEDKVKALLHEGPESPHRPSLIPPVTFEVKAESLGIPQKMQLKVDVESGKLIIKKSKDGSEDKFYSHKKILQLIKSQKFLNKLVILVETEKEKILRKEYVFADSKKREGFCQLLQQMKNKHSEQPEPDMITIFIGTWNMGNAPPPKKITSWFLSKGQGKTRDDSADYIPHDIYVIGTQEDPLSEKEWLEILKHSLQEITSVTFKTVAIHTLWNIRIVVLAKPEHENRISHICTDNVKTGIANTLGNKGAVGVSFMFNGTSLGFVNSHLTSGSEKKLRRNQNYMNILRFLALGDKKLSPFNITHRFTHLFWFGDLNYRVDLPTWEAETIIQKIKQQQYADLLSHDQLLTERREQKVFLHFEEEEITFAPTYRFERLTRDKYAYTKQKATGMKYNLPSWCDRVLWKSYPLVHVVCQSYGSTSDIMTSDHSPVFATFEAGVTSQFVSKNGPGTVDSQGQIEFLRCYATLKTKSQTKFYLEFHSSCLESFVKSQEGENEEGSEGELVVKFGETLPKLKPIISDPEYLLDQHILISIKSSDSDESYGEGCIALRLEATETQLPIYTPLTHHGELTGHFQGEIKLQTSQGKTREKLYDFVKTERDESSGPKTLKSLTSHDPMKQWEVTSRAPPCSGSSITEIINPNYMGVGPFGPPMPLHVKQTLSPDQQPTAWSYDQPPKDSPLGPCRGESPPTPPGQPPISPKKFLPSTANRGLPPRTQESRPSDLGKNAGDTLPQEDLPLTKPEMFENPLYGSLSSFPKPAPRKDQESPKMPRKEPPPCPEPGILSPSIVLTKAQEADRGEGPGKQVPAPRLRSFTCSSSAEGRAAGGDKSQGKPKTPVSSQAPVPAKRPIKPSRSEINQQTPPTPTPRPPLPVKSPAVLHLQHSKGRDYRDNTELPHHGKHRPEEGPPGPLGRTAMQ

[2] = target: T2, Phosphatidylinositol 3,4,5-trisphosphate 5-phosphatase 2 (Homo sapiens) (UniProt O15357); test: Inhibition of recombinant human truncated SHIP2 using PI(3,4,5)P3diC8 at 1 mM after 30 mins by malachite green phosphatase release assay
T2 sequence (whole entry): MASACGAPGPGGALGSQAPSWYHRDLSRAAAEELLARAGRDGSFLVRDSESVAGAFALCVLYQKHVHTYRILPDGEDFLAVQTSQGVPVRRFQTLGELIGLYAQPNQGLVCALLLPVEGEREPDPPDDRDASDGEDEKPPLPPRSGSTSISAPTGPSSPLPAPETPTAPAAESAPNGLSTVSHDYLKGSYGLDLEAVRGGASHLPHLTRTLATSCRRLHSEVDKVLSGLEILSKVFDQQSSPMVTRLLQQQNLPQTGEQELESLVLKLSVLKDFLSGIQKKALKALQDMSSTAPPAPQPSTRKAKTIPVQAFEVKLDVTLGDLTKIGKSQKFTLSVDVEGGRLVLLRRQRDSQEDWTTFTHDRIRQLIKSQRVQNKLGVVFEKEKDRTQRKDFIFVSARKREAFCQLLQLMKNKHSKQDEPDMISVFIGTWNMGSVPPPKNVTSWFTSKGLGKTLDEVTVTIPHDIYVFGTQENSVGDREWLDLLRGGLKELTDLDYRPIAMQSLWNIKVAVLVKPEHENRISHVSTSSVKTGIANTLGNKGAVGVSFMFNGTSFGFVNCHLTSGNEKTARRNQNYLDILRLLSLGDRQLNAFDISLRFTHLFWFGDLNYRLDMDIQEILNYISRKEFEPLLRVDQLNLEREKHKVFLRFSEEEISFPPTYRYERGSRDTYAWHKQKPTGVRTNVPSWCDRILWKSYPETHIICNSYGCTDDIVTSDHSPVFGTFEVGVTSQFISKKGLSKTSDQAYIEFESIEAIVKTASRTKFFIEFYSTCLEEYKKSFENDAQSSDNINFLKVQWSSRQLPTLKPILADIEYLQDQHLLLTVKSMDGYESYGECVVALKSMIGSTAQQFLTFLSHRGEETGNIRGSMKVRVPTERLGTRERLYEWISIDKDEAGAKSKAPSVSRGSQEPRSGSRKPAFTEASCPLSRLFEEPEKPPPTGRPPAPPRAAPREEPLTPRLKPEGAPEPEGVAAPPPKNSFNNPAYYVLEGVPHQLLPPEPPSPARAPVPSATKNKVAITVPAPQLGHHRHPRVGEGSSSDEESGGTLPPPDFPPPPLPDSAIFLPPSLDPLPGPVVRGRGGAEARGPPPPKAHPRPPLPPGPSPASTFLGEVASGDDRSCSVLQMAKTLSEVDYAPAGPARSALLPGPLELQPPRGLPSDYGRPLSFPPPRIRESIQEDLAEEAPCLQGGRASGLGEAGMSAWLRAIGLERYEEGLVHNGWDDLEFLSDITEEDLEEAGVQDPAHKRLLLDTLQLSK

[3] = target: T1, Phosphatidylinositol 3,4,5-trisphosphate 5-phosphatase 1 (Homo sapiens); test: Inhibition of recombinant human truncated SHIP1 using PI(3,4,5)P3diC8 at 500 uM after 30 mins by malachite green phosphatase release assay
[4] = target: T2, Phosphatidylinositol 3,4,5-trisphosphate 5-phosphatase 2 (Homo sapiens); test: Inhibition of recombinant human truncated SHIP2 using PI(3,4,5)P3diC8 at 500 uM after 30 mins by malachite green phosphatase release assay

SMILES | inhibition [1] | inhibition [2] | inhibition [3] | inhibition [4]
OC(c1cc(-c2ccccc2)nc2c1ccc1ccccc12)C1CCCCN1 (centres undefined) | 38% | 17% |  | 
OC(c1cc(C(F)(F)F)nc2c(C(F)(F)F)cccc12)C1CCCCN1 (centres undefined) | 54% | 54% |  | 
OC(c1cc(C23CC4CC(CC(C4)C2)C3)nc2c(Cl)cc(Cl)cc12)C1CCCCN1 (centres undefined) | 38% | 73% |  | 
CN[C@@H](C)[C@@H](O)c1ccccc1 | 2% | 13% |  | 
NCc1cc(-c2ccccc2)nc2c1ccc1ccccc12 | 41% | 66% |  | 
O=C(O)c1cc(C23CC4CC(CC(C4)C2)C3)nc2c(Cl)cc(Cl)cc12 |  |  | 44% | 0%
OCc1cc(-c2ccccc2)nc2c1ccc1ccccc12 |  |  | 2% | 18%
OCc1cc(C23CC4CC(CC(C4)C2)C3)nc2c(Cl)cc(Cl)cc12 |  |  | 0% | 14%
C=C[C@H]1CN2CC[C@H]1C[C@@H]2[C@@H](O)c1ccnc2ccc(OC)cc12 | 19% | 5% |  | 
O=C(O)c1cc(-c2ccccc2)nc2c1ccc1ccccc12 |  |  | 7% | 0%
CN[C@@H](C)[C@H](O)c1ccccc1 | 0% | 0% |  | 
C=C[C@H]1CN2CC[C@H]1C[C@H]2[C@H](O)c1ccnc2ccc(OC)cc12 | 0% | 8% |  | 

Reference: ChEMBL document CHEMBL3627712, “Synthesis and initial evaluation of quinoline-based inhibitors of the SH2-containing inositol 5'-phosphatase (SHIP)” (Bioorg Med Chem Lett, 2015)
